The values that follow come from PubChem BioAssay (NCI).

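How tested: cells in 96-well plates exposed to compound for 48 hours at five concentrations. TGI denotes the concentration required for complete inhibition of growth.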

Some test systems named below: SNB-19 CNS; IGROV1 ovarian; RPMI-8226 leukemia; NCI-H460 lung; TK-10 renal; A549 NSCLC; K-562 leukemia; UO-31 renal; HCT-116 colon; MDA-MB-435; HCC-2998 colon.
Experiment in all cases: growth of human tumour cells (NCI), 48 h

`CCC/C(Cl)=N\OC(=O)Nc1ccc(Br)cc1`: the TGI with SNB-19 CNS is > 59.7 µM; with IGROV1 ovarian, 32.8 µM; in the experiment on RPMI-8226 leukemia, 12.2 µM; with NCI-H460 lung it was 34.6 µM; in the experiment with TK-10 renal, 27.2 µM; with A549 NSCLC, 45.2 µM. Also, the TGI worked out at 4.15 µM in the experiment with K-562 leukemia; 25.7 µM in the experiment on UO-31 renal; 26.2 µM in the experiment on HCT-116 colon; 28.7 µM in the experiment with MDA-MB-435; 32.9 µM in the experiment with HCC-2998 colon.
For the compound `Cc1ccc(S(=O)(=O)Oc2coc(CO)cc2=O)cc1`, the TGI in the experiment on SNB-19 CNS was determined as 27.8 µM; in the experiment on IGROV1 ovarian, 34.5 µM; in the experiment with RPMI-8226 leukemia it was 36.5 µM; in the experiment on NCI-H460 lung, 31.1 µM; in the experiment on TK-10 renal, 44.2 µM; in the experiment with A549 NSCLC, 28.1 µM. Further, the TGI in the experiment with K-562 leukemia is > 100 µM; with UO-31 renal, 27.3 µM; in the experiment with HCT-116 colon it was 15 µM; in the experiment on MDA-MB-435, 30.7 µM; with HCC-2998 colon, 27 µM.
For the compound `CCN(CC)CCN1CCN=c2c3cc(OC)ccc3n3cnc4ccc1c2c43`, the TGI was 3.04 µM with SNB-19 CNS; 2.45 µM with IGROV1 ovarian; 1.3 µM with RPMI-8226 leukemia; 0.724 µM in the experiment with NCI-H460 lung; 4.93 µM in the experiment on TK-10 renal; 2.78 µM with A549 NSCLC. Further, the TGI amounted to 2.68 µM in the experiment with K-562 leukemia; 4.42 µM in the experiment with UO-31 renal; 2.84 µM with HCT-116 colon; 1.92 µM in the experiment with MDA-MB-435; 2.13 µM with HCC-2998 colon.
For `O=C(/C=C/c1c(O)c2ccccc2[nH]c1=O)CC(=O)C(=O)Nc1cccc(O)c1`, the TGI in the experiment on SNB-19 CNS, in the experiment on IGROV1 ovarian, with RPMI-8226 leukemia, in the experiment with NCI-H460 lung, with TK-10 renal and in the experiment with A549 NSCLC was > 100 µM throughout. Also, the TGI in the experiment on K-562 leukemia, in the experiment with UO-31 renal, in the experiment with HCT-116 colon, in the experiment with MDA-MB-435 and in the experiment on HCC-2998 colon was > 100 µM throughout.
Regarding `COc1ccc(-c2cc(=O)c3c(O)c(OC)c(O)cc3o2)cc1O`, the TGI in the experiment on SNB-19 CNS is > 100 µM; in the experiment with IGROV1 ovarian it was 40.2 µM; in the experiment with RPMI-8226 leukemia it was > 23.6 µM; with NCI-H460 lung, 43.6 µM; with TK-10 renal, > 100 µM; in the experiment with A549 NSCLC it was > 100 µM. Besides, the TGI with K-562 leukemia was > 52.7 µM; with UO-31 renal, > 100 µM; in the experiment on HCT-116 colon, 32.4 µM; with MDA-MB-435 it was > 100 µM; in the experiment with HCC-2998 colon, > 100 µM.
With `Cc1ccc2nc(CN3CCCCC3)cc(=O)n2c1`, the TGI with SNB-19 CNS, in the experiment on IGROV1 ovarian, in the experiment with RPMI-8226 leukemia, in the experiment with NCI-H460 lung, in the experiment on TK-10 renal and with A549 NSCLC was > 100 µM in each case. Also, the TGI in the experiment on K-562 leukemia, with UO-31 renal, with HCT-116 colon, in the experiment on MDA-MB-435 and with HCC-2998 colon was > 100 µM throughout.
Turning to `CC(=O)CCC(=O)CC(O)(C(F)(F)F)C(F)(F)F`, the TGI with SNB-19 CNS was found to be 30 µM; with IGROV1 ovarian, 31.1 µM; in the experiment with RPMI-8226 leukemia, 49.8 µM; in the experiment with NCI-H460 lung it was 38.6 µM; with TK-10 renal, 44.1 µM; in the experiment with A549 NSCLC, 41.9 µM. The TGI in the experiment with K-562 leukemia was 33.4 µM; with UO-31 renal it was 27.8 µM; in the experiment on HCT-116 colon it was 31.3 µM; in the experiment on MDA-MB-435, 34.6 µM; in the experiment on HCC-2998 colon, 33.6 µM.
In the case of `c1ccc2c(OCC3CO3)ccc(OCC3CO3)c2c1` (configuration not stated), the TGI in the experiment on SNB-19 CNS came to 21 µM; in the experiment on IGROV1 ovarian, 16 µM; in the experiment on RPMI-8226 leukemia it was 9.44 µM; with NCI-H460 lung, 12.5 µM; in the experiment on TK-10 renal, 26.7 µM; in the experiment with A549 NSCLC, 16.9 µM. Further, the TGI with K-562 leukemia is 16.8 µM; with UO-31 renal it was 3.15 µM; in the experiment on HCT-116 colon, 2.76 µM; with MDA-MB-435 it was 7.74 µM; with HCC-2998 colon, 24.1 µM.
For `COc1ccc2cc(CNCCCN3CCN(CCCNCc4ccc5cc(OC)ccc5c4)CC3)ccc2c1`, the TGI in the experiment on SNB-19 CNS amounted to 3.18 µM; with IGROV1 ovarian, 3.12 µM; in the experiment on RPMI-8226 leukemia, 0.577 µM; in the experiment with NCI-H460 lung, 2.87 µM; in the experiment with TK-10 renal, 3.3 µM; in the experiment with A549 NSCLC it was 3.31 µM. Also, the TGI in the experiment with K-562 leukemia came out at 0.366 µM; in the experiment on UO-31 renal, 3.14 µM; in the experiment on HCT-116 colon, 2.56 µM; in the experiment on MDA-MB-435, 2.99 µM; in the experiment on HCC-2998 colon, 0.643 µM.
Take `C=C(CO)[C@H]1CC/C(C)=C/CC/C(C)=C/C/C=C(\C)[C@H](O)C1`: the TGI in the experiment with SNB-19 CNS was > 100 µM; with IGROV1 ovarian, 36.1 µM; in the experiment with RPMI-8226 leukemia it was 51.6 µM; in the experiment with NCI-H460 lung, 62.7 µM; in the experiment on TK-10 renal, 47.7 µM; in the experiment on A549 NSCLC, > 100 µM. Further, the TGI is > 100 µM in the experiment with K-562 leukemia; 93 µM in the experiment with UO-31 renal; > 100 µM in the experiment with HCT-116 colon; 35.8 µM with MDA-MB-435; 32.2 µM with HCC-2998 colon.
Regarding `CN(C)Cc1cc(C(=O)/C=C/c2c(Cl)cccc2Cl)cc(CN(C)C)c1O`, the TGI turned out to be 31 µM in the experiment on SNB-19 CNS; 21.8 µM in the experiment on IGROV1 ovarian; 39 µM with RPMI-8226 leukemia; 13 µM in the experiment with NCI-H460 lung; 27.8 µM with TK-10 renal; 29.5 µM with A549 NSCLC. Further, the TGI in the experiment with K-562 leukemia stood at 13.4 µM; in the experiment on UO-31 renal, 8.85 µM; in the experiment on HCT-116 colon it was 19.6 µM; in the experiment on MDA-MB-435, 21.9 µM; in the experiment on HCC-2998 colon it was 34.7 µM.
Take `CC(C)CC(=O)OC[n+]1cccc(-c2c(COC(=O)NC(C)C)c(COC(=O)NC(C)C)c3n2CCC3)c1`: the TGI in the experiment on SNB-19 CNS, in the experiment with IGROV1 ovarian, with RPMI-8226 leukemia, with NCI-H460 lung, in the experiment on TK-10 renal and in the experiment on A549 NSCLC was > 100 µM in each case. In addition, the TGI with K-562 leukemia is > 100 µM; in the experiment with UO-31 renal, 91.6 µM; with HCT-116 colon, > 100 µM; in the experiment with MDA-MB-435, > 100 µM; with HCC-2998 colon it was > 100 µM.
